Assays:
Assay in all cases: anti-proliferation assay
Format in all cases: cell-based
SW480(OWT) = details: Homo sapiens, SW480, 48 h, read-out: anti-proliferation GI50
SNU-1040(OMT) = details: Homo sapiens, 48 h, read-out: anti-proliferation GI50
EJ(WT) = details: 48 h, read-out: anti-proliferation GI50
T47D(OWT) = details: Homo sapiens, 48 h, read-out: anti-proliferation GI50
H1975(WT) = details: Homo sapiens, NCI-H1975, 48 h, read-out: anti-proliferation GI50
HCT-116(OWT) = details: Homo sapiens, HCT-116, 48 h, read-out: anti-proliferation GI50
A549(WT) = details: Homo sapiens, A549, 48 h, read-out: anti-proliferation GI50
SaoS2(WT) = details: Homo sapiens, SAOS-2, 48 h, read-out: anti-proliferation GI50
SNU-449(OMT) = details: Homo sapiens, SNU-449, 48 h, read-out: anti-proliferation GI50
SkBr3(WT) = details: Homo sapiens, SK-BR-3, 48 h, read-out: anti-proliferation GI50

GI50 (SW480(OWT)): > 10 µM | GI50 (SNU-1040(OMT)): > 10 µM | GI50 (T47D(OWT)): > 10 µM | GI50 (H1975(WT)): > 10 µM | GI50 (HCT-116(OWT)): 8.7 µM | GI50 (A549(WT)): > 10 µM | GI50 (SNU-449(OMT)): > 10 µM
SMILES: CCN1CCN(Cc2ccc(C(=O)Nc3ccc(C)c(Oc4ccc5c(c4)CC(=O)N5)c3)cc2C(F)(F)F)CC1 [DDR1-IN-1]
GI50 (EJ(WT)): > 10 µM | GI50 (SaoS2(WT)): 8.14 µM | GI50 (SkBr3(WT)): > 10 µM

Source: PMC3800496 (ACS Chemical Biology, 2013)
